Results: patent US20210238176A1, “PESTICIDALLY-ACTIVE BICYCLIC HETEROAROMATIC COMPOUNDS” (SYNGENTA CROP PROTECTION AG, priority 2018, published 2021)

Tests used:
[1] = system: Myzus persicae (Green Peach Aphid); experiment: Myzus persicae (green peach aphid) feeding/contact activity, sunflower leaf discs; assay type: in vivo; conditions: foliar, 144 h, application rate 200 ppm, aphid population of mixed ages, 6 days after infestation
Procedure: Myzus persicae (Green Peach Aphid): Feeding/Contact Activity
Sunflower leaf discs were placed onto agar in a 24-well microtiter plate and sprayed with aqueous test solutions prepared from 10,000 ppm DMSO stock solutions. After drying, the leaf discs were infested with an aphid population of mixed ages. The samples were assessed for mortality 6 days after infestation.

[2] = system: Myzus persicae (Green Peach Aphid); experiment: Myzus persicae intrinsic activity, sucrose solution under Parafilm; assay type: in vivo; conditions: 120 h, test rate 12 ppm, 5 days after infestation
Description: Myzus persicae (Green Peach Aphid). Intrinsic Activity
Test compounds prepared from 10,000 ppm DMSO stock solutions were applied by pipette into 24-well microtiter plates and mixed with sucrose solution. The plates were closed with a stretched Parafilm. A plastic stencil with 24 holes was placed onto the plate and infested pea seedlings were placed directly on the Parafilm. The infested plate was closed with a gel blotting paper and another plastic stencil and then turned upside down. The samples were assessed for mortality 5 days after infestation.

SMILES	mortality at 200 ppm [1]	mortality at 12 ppm [2]
O=c1nc2n(Cc3ccc(Cl)nc3)cccc-2n1-c1cccc(-c2ccccc2)c1 [Compound A1, 4-[(6-chloro-3-pyridyl)methyl]-1-(3-phenylphenyl)imidazo[4,5-b]pyridin-2-one]	≥ 80%	≥ 80%
O=c1nc2n(Cc3ccc(Cl)nc3)cccc-2n1-c1cnn(-c2ccccc2)c1 [Compound A5, 4-[(6-chloro-3-pyridyl)methyl]-1-(1-phenylpyrazol-4-yl)imidazo[4,5-b]pyridin-2-one]	≥ 80%	≥ 80%
O=c1nc2n(Cc3ccc(Cl)nc3)cccc-2n1-c1cccc(Cl)c1 [Compound A6, 1-(3-chlorophenyl)-4-[(6-chloro-3-pyridyl)methyl]imidazo[4,5-b]pyridin-2-one]	≥ 80%	≥ 80%
COc1cccc(-n2c3cccn(Cc4ccc(Cl)nc4)c-3nc2=O)c1 [Compound A7, 4-[(6-chloro-3-pyridyl)methyl]-1-(3-methoxyphenyl)imidazo[4,5-b]pyridin-2-one]	≥ 80%	≥ 80%
COc1ccc(-n2c3cccn(Cc4ccc(Cl)nc4)c-3nc2=O)cc1 [Compound A8, 4-[(6-chloro-3-pyridyl)methyl]-1-(4-methoxyphenyl)imidazo[4,5-b]pyridin-2-one]	≥ 80%	≥ 80%
O=c1nc2n(Cc3ccc(Cl)nc3)cccc-2n1-c1cc(C(F)F)ccn1 [Compound A19, 4-[(6-chloro-3-pyridyl)methyl]-1-[4-(difluoromethyl)-2-pyridyl]imidazo[4,5-b]pyridin-2-one]	–	≥ 80%
O=c1nc2n(Cc3ccc(Cl)nc3)cccc-2n1-c1ncccn1 [Compound A23, 4-[(6-chloro-3-pyridyl)methyl]-1-pyrimidin-2-yl-imidazo[4,5-b]pyridin-2-one]	≥ 80%	–
O=c1nc2n(Cc3ccc(Cl)nc3)cccc-2n1-c1ccc(Cl)cc1Cl [Compound A41, 4-[(6-chloro-3-pyridyl)methyl]-1-(2,4-dichlorophenyl)imidazo[4,5-b]pyridin-2-one]	–	≥ 80%
O=c1nc2n(Cc3ccc(Cl)nc3)cccc-2n1-c1ccsc1 [Compound A47, 4-[(6-chloro-3-pyridyl)methyl]-1-(3-thienyl)imidazo[4,5-b]pyridin-2-one]	–	≥ 80%
Cc1ccc(C)c(-n2c3cccn(Cc4ccc(Cl)nc4)c-3nc2=O)c1 [Compound A51, 4-[(6-chloro-3-pyridyl)methyl]-1-(2,5-dimethylphenyl)imidazo[4,5-b]pyridin-2-one]	–	≥ 80%
O=c1nc2n(Cc3ccc(Cl)nc3)cccc-2n1-c1csc(C(F)F)c1 [Compound A68, 4-[(6-chloro-3-pyridyl)methyl]-1-[5-(difluoromethyl)-3-thienyl]imidazo[4,5-b]pyridin-2-one]	–	≥ 80%
O=c1nc2n(Cc3ccc(Cl)nc3)cccc-2n1-c1csc(C(F)(F)F)c1 [Compound A71, 4-[(6-chloro-3-pyridyl)methyl]-1-[5-(trifluoromethyl)-3-thienyl]imidazo[4,5-b]pyridin-2-one]	–	≥ 80%
O=c1nc2n(Cc3ccc(Cl)nc3)cccc-2n1-c1cc(F)cs1 [Compound A73, 4-[(6-chloro-3-pyridyl)methyl]-1-(4-fluoro-2-thienyl)imidazo[4,5-b]pyridin-2-one]	–	≥ 80%
COC(=O)c1ccc(-n2c3cccn(Cc4ccc(Cl)nc4)c-3nc2=O)o1 [Compound A77, methyl 5-[4-[(6-chloro-3-pyridyl)methyl]-2-oxo-imidazo[4,5-b]pyridin-1-yl]furan-2-carboxylate]	–	≥ 80%
O=c1nc2n(Cc3ccc(Cl)nc3)cccc-2n1-c1cnn(C2COC2)c1 [Compound A87, 4-[(6-chloro-3-pyridyl)methyl]-1-[1-(oxetan-3-yl)pyrazol-4-yl]imidazo[4,5-b]pyridin-2-one]	≥ 80%	–
CCn1nccc1-n1c2cccn(Cc3ccc(Cl)nc3)c-2nc1=O [Compound A89, 4-[(6-chloro-3-pyridyl)methyl]-1-(2-ethylpyrazol-3-yl)imidazo[4,5-b]pyridin-2-one]	–	≥ 80%
